One series relates to U87MG tumor. Description: in vivo. Conditions: mouse. Also noted: species or system mice. As to the method: (§1) Animal procedures were performed according to a protocol approved by the University of Southern California Institutional Animal Care and Use Committee. For static microPET scans, mice bearing U87MG xenografts were injected with 3.7 MBq (100 μCi) of ^18F-41 via the tail vein (n=3 for each group). At 0.5, 1, and 2 h post injection (p.i.), the mice were anesthetized with isoflurane (5% for induction and 2% for maintenance in 100% O2) using a knock-down box. With the help of a laser beam attached to the scanner, the mice were placed in the prone position and near the center of the field of view of the scanner. The 3-min static scans were then obtained. Images were reconstructed using a 2-dimensional ordered-subsets expectation maximization (OSEM) algorithm. No background correction was performed. Regions of interest (ROIs; 5 pixels for coronal and transaxial slices) were drawn over the tumor on decay-corrected whole-body coronal images. The maximum counts per pixel per minute were obtained from the ROI and converted to counts per milliliter per minute using a calibration constant. With the assumption of a tissue density of 1 g/mL, the ROIs were converted to counts per gram per min. Image ROI-derived % ID/g values were determined by dividing counts per gram per minute with injected dose. No attenuation correction was performed. Similarly, ^18F-43 was injected into healthy nude mice for microPET study.
(§2) Representative coronal microPET images of U87MG tumor-bearing mice (n=3/group) were obtained at different times after intravenous injection of about 3.7 MBq (100 μCi) of ^18F-41. The tumors after injection of the radiotracers were all clearly visible with good contrast to contralateral background at all time points measured. […] Quantification of tumor and major organ activity accumulation in the microPET scans was achieved by measuring regions of interest (ROIs) encompassing the entire organ on the coronal images. Tumor and major organ uptake of ^18F-41 is depicted in FIG. 3A. The tumor uptake of ^18F-41 in U87MG tumor was 1.98±0.33, 1.80±0.15, and 1.27±0.33% ID/g at 0.5, 1, and 2 h p.i., respectively. The uptake of the ^18F-41 decreased rapidly with time in the muscle, affording better image contrast at later time points after injection (2 h).

A short description of a further series: in vivo. The arrangement: species or system mice. The note with it: mouse, iv, 3.7 MBq, total radioactivity. As to the method:
as §1, §2

Series [1] can be described thus: Stability and isomerization of Diels-Alder conjugate 10 in water, CD3CN/H2O, PBS. The note with it: for rearrangement to ^19F-11, conversion: CD3CN/H2O. The format is physicochemical.
Series [2] in a line: Stability of 16 in human serum. The format is in vitro ADME. Conditions: 24 hours.
Series [3] is described as follows: Rate of Diels-Alder reaction with 3,6-di(2-pyridyl)-s-tetrazine (1a). The format is physicochemical. From the text:
The inventors have previously described tetrazine-trans-cyclooctene ligation (‘ITCO ligation’) as a method of bioconjugation that proceeds with fast reaction rates without need for catalysis (M. L. Blackman, M. Royzen and J. M. Fox, J. Am. Chem. Soc. 2008, 130, 13518-13519) trans-Cyclooctene derivatives are readily prepared from cis-cyclooctenes using a photochemical flow-reaction that the inventors developed (M. Royzen, G. P. A. Yap and J. M. Fox, J. Am. Chem. Soc. 2008, 130, 3760-3761). […] Thus, the reaction between trans-cyclooctene and 1a proceeds with a rapid rate (k2˜2000 M^−1 s^−1 in 9:1 MeOH:water), and is successful in cell media and cell lysate.
The inventors also used a photochemical flow reactor (M. Royzen, G. Yap, and J. Fox, J. Am. Chem. Soc. 2008, 130 (12), 3760) to synthesize 16, an analog of 7 with a functionalizable group. The rate of the reaction of compound 16 with 3,6-di(2-pyridyl)-s-tetrazine (1a) in methanol was k2=22000 M^−1s^−1, […] than the reaction of 1a with trans-cyclooctene in the same solvent. […] Compound 16 can be readily converted into carbamate derivatives, and compound 16 can be selectively conjugated to the protein thioredoxin using the conjugation of maleimide 26 (vide infra) to a cysteine residue, and that conjugate can in turn can take part in tetrazine ligation analogous to that shown below for compound 16.

Series [4] can be described thus: Chemical stability of 16 (water, amine, thiol). The class given is physicochemical. Conditions: 24 hours.
The conditions of series [5]: 9:1 MeOH:water; cited from earlier work.

Where two headings read alike, the source gives them in different places. A value given as a limit tells only on which side of the number the result lay.

One may read the tissue uptake as the percentage of the injected dose found per gram of tissue.

`N=C(N)NCCC[C@@H]1NC(=O)[C@H](CSC2CC(=O)N(CCNC(=O)CCCC(=O)Nc3ccc(C4=NN=C(c5ccccn5)C5CCCCC(OCCF)CC45)nc3)C2=O)NC(=O)[C@@H](Cc2ccc(O)cc2)NC(=O)[C@H](CC(=O)O)NC(=O)CNC1=O` (stereo partly drawn) [^18F-41]: the excretion route result in the series on U87MG tumor is “mainly excreted through the renal system”. In “in vivo”, the tissue uptake at 0.5 h worked out at 1.98 ± 0.33 %ID/g, the tissue uptake at 1 h is 1.8 ± 0.15 %ID/g and the tissue uptake at 2 h amounted to 1.27 ± 0.33 %ID/g.

Take `FCCO[C@@H]1CCC[C@@H]2C(c3ccccn3)=NN=C(c3ccccn3)[C@H]2CC1` [compound 10, 7-(2-fluoroethoxy)-1,4-di(pyridin-2-yl)-4a,5,6,7,8,9,10,10a-octahydrocycloocta[d]pyridazine]: the stability in water result in series [1] was “stable”. Moreover, the “rearrangement to ^19F-11, conversion” value is 11% in series [1] (after 4 hours) and greater than 95% in series [1] (after 48 hours).

With `OC[C@@H]1[C@H]2CC/C=C/CC[C@@H]12` [compound 16], the stability result in series [2], in series [4] (5 mM ethanethiol in MeOH), in series [4] (5 mM n-butylamine in MeOH) and in series [4] (water) was “no degradation” in each case. In addition, the “rate of reaction with 1a” value in series [3] (aqueous solvent systems, UV-vis spectroscopy) is on record as “too fast to measure”. In series [3] (methanol), the “k2, reaction with 1a” value worked out at 22000 M⁻¹ s⁻¹. In addition, the “rate relative to reaction of 1a with trans-cyclooctene” value in series [3] (same solvent (methanol)) came out at 18 times faster.

For `C1=C/CCCCCC/1` [trans-cyclooctene], the “k2, reaction with 1a” value in series [5] was roughly 2000 M⁻¹ s⁻¹.
